Measurements reported in US8455491B2, “6-cycloamino-3-(pyridazin-4-yl)imidazo[1,2-b]pyridazine and derivatives and pharmaceutical compositions comprising the same” (Sanofi, priority 2007, dated 2013).

What was measured:
[1] = test system: Mper1-luc Rat-1 (P2C4) fibroblasts; experiment: Circadian cell assay (mPer1-luciferase reporter, period prolongation); type: cell-based; conditions: effective concentration that induced a 1-hour prolongation of the circadian period, interpolated from hyperbolic curve
Experimental: Experimental Protocols for Circadian Cell Assay
Mper1-luc Rat-1 (P2C4) fibroblast cultures were prepared by dividing the cultures every 3-4 days (approximately 10-20% of confluence) on 150 cm^2 degassed polystyrene tissue culture flasks (Falcon® #35-5001) and maintained in growth medium [EMEM (Cellgro #10-010-CV); 10% fetal bovine serum (FBS; Gibco #16000-044); and 50 I.U./ml of penicillin-streptomycin (Cellgro #30-001-CI)] at 37° C. and under 5% CO2.
Cells obtained from Rat-1 fibroblast cultures at 30-50% of confluence as described above were co-transfected with vectors containing the selection marker for resistance to zeocin for a stable transfection and a luciferase reporter gene controlled by the mPer-1 promoter. After 24 to 48 hours, the cultures were divided on 96-well plates and maintained in growth medium supplemented with 50-100 μg/ml of zeocin (Invitrogen® #45-0430) for 10-14 days. The zeocin-resistant stable transfectants were evaluated for the expression of the reporter by adding 100 μM lucerfin (Promega® #E1603®) to the growth medium and by assaying the luciferase activity on a TopCount® scintillation counter (Packard Model #C384V00). The Rat-1 cell clones expressing both zeocin resistance and lucerifase activity controlled by mPer1 were serum-shock synchronized with 50% horse serum [HS (Gibco® #16050-122)] and the activity of the circadian reporter was evaluated. The P2C4 clone of Mper1-luc Rat-1 fibroblasts was selected to test the compound.
Mper1-luc Rat-1 (P2C4) fibroblasts at 40-50% of confluence, obtained according to the protocol described above, were plated out onto 96-well opaque tissue culture plates (Perkin Elmer® #6005680). The cultures are maintained in growth medium supplemented with 100 μg/ml of zeocin (Invitrogen #45-0430) until they reach 100% of confluence (48-72 h). The cultures were then synchronized with 100 μl of synchronization medium [EMEM (Cellgro #10-010-CV); 100 I.U./ml of penicillin-streptomycin (Cellgro #30-001-C1); 50% HS (Gibco #16050-122)] for 2 hours at 37° C. and under 5% CO2. After synchronization, the cultures were rinsed with 100 μl of EMEM (Cellgro #10-010-CV) for 10 minutes at ambient temperature. […]
The period analysis was performed either by determining the interval between the relative light emission minima over several days or by Fourier transform. […] The data were analyzed by adjusting a hyperbolic curve to the data expressed as change of period (y-axis) as a function of the concentration of the test compound (x-axis) in the XLfit™ software and the CE Delta (t+1 h) was interpolated from this curve.

[2] = biological target: T1, casein kinase 1 epsilon (CK1 epsilon) (Homo sapiens, UniProt P49674); experiment: Filter-plate assay of ATP-33P, inhibition of casein phosphorylation by CK1 epsilon; type: biochemical; conditions: casein substrate, ATP 10 μM, 2 hours at ambient temperature
T1 construct: Invitrogen Corporation (named as alternative)
Experimental: The capacity of the compounds of the invention to inhibit the phosphorylation of casein by casein kinase 1 epsilon and delta may be evaluated according to the procedure described in US 2005/0131012.
Filter-Plate Assay of ATP-^33P for the Screening of CK1 Epsilon Inhibitors:
The effect of the compounds on inhibition of the phosphorylation of casein by the enzyme casein kinase 1 epsilon (CK1 epsilon) is measured, using a casein assay with filtration of ATP-^33P in vitro.
Casein kinase 1 epsilon (0.58 mg/ml) is obtained via fermentation and purification processes performed according to methods that are well known to those skilled in the art, or may also be obtained from Invitrogen Corporation™ (human CK1 epsilon).
The compounds are tested at five different concentrations so as to generate IC50 values, i.e. the concentration at which a compound is capable of inhibiting the enzymatic activity by 50%, or alternatively the percentage of inhibition at a concentration of 10 micromolar.
“U”-bottomed Falcon plates are prepared by placing 5 μL of solutions of the compounds according to the invention at concentrations of 10, 1, 0.1, 0.01 or 0.001 μM in various wells. The solutions of the compounds according to the invention at these various concentrations are prepared by diluting in a test buffer (50 mM Tris, pH 7.5, […], 2 mM DTT and 1 mM EGTA) a stock solution in DMSO at a concentration of 10 mM. Next, 5 μL of dephosphorylated casein are added to a final concentration of 0.2 μg/μL, 20 μl of CK1 epsilon to a final concentration of 3 ng/μl, and 20 μl of ATP-^33P to a final concentration of 0.02 μCi/μl mixed with cold ATP (10 μM final—approximately 2×10^6 CPM per well). The final total test volume per well is equal to 50 μl.
The “U”-bottomed Falcon® test plate mentioned above is vortexed, and then incubated at ambient temperature for 2 hours. After 2 hours, the reaction is stopped by adding an ice-cold solution of 65 μl of ATP (2 mM) prepared in test buffer.
100 μl of the reaction mixture are then transferred from the “U”-bottomed Falcon® plate into Millipore® MAPH filter plates, preimpregnated with 25 μl of ice-cold 100% TCA. […]
The plates are left to dry overnight at ambient temperature. […] The radiation emitted by each well is then measured for 2 minutes in a Packard® Topcount NXT scintillation counter, in which the values of CPM/well are measured.
The percentage inhibition of the capacity of the enzyme to phosphorylate the substrate (casein) is determined for each concentration of compound tested. These inhibition data expressed as percentages are used to calculate the IC50 value for each compound compared with the controls.
The kinetic studies determined the KM value for ATP as being 21 μM in this test system.

[3] = biological target: T2, human CK1 delta (Homo sapiens, UniProt P48730); experiment: FRET fluorescence test (Z'Lyte kinase assay Kit), CK1 delta; type: biochemical; conditions: peptide substrate SER/THR 11 2 μM, ATP 4 times the KM
T2 construct: purchased Invitrogen Corporation PV3665
Description: The capacity of the compounds of the invention to inhibit the phosphorylation of casein by casein kinase 1 epsilon and delta may be evaluated using a FRET (“Fluorescence Resonance Energy Transfer) fluorescence test with the aid of the “Z′Lyte™ kinase assay Kit” (reference PV3670; Invitrogen Corporation™) according to the manufacturer's instructions.
The casein kinases 1 used are obtained from Invitrogen Corporation (human CK1 epsilon PV3500 and human CK1 delta PV3665).
A peptide substrate, labeled at both ends with a fluorophore donor group (coumarin) and a fluorophore acceptor group ([…]) constituting a FRET system is phosphorylated in the presence of ATP by casein kinase 1 epsilon or delta in the presence increasing concentrations of compounds of the invention. The mixture is treated with a site-specific protease that specifically cleaves the peptide substrate to form two fluorescent fragments having a large fluorescence emission ratio.
The fluorescence observed is thus related to the capacity of the products of the invention to inhibit the phosphorylation of the peptide substrate by casein kinase 1 epsilon or casein kinase 1 delta.
The compounds of the invention are dissolved at different concentrations starting with a 10 mM stock solution in DMSO diluted in a buffer containing 50 mM HEPS, pH 7.5, 1 m MEGTA, 0.01% Brij-35, 10 mM MgCl for casein kinase 1 epsilon and supplemented with Trizma Base (50 mM), pH 8.0, and NaN3 (0.01% final) for casein kinase 1 delta.
The phosphorylation of the peptide substrate SER/THR 11 obtained from Invitrogen Corporation™ is performed at a final concentration of 2 μM. The ATP concentration is 4 times the KM, this value being 2 μM for casein kinase 1 epsilon and 4 μM for casein kinase 1 delta.
The emitted fluorescence is measured at wavelengths of 445 and 520 nm (excitation at 400 nm).

T2 sequence (P48730 whole entry): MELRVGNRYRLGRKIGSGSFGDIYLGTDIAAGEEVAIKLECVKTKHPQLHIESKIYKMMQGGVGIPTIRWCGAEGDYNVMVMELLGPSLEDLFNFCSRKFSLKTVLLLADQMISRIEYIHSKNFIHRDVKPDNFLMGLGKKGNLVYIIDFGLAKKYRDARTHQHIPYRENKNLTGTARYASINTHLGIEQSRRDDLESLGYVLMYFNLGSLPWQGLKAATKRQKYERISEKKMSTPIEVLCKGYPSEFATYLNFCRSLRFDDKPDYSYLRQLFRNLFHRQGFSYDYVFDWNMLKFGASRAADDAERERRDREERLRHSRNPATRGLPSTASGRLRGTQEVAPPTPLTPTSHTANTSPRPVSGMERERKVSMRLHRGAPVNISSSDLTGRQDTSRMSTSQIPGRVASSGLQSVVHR
T1 sequence (P49674 whole entry): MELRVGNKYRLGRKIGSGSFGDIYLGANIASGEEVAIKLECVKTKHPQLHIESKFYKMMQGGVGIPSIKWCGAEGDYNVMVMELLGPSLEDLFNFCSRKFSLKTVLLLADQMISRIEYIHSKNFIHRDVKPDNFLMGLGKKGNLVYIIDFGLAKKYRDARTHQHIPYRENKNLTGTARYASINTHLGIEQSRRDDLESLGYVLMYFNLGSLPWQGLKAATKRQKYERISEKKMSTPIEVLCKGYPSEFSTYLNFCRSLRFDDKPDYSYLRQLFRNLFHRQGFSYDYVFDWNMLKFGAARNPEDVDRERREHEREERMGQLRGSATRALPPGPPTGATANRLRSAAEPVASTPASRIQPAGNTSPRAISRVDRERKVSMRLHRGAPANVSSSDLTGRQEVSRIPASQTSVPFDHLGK

SMILES | melting point | CE Delta (t + 1 h) [1] | IC50 [2] | IC50 [3]
OCC1CN(c2ccc3nc(-c4ccc(F)cc4)c(-c4ccnnc4)n3n2)CCN1 (racemic) [compound 39, (+/−)-{4-[2-(4-fluorophenyl)-3-pyridazin-4-ylimidazo[1,2-b]pyridazin-6-yl]piperazin-2-yl}methanol] | 205 to 212 °C | 178 nM | 98 nM | –
Fc1ccc(-c2nc3ccc(N4CCNCC4)nn3c2-c2ccnnc2)cc1 [Compound No. 1, 2-(4-fluorophenyl)-6-(piperazin-1-yl)-3-(pyridazin-4-yl)imidazo[1,2-b]pyridazine] | – | – | – | 1 nM
C[C@@H]1CN(c2ccc3nc(-c4ccc(F)cc4)c(-c4ccnnc4)n3n2)CCN1 [Compound No. 2, 2-(4-fluorophenyl)-6-((R)-3-methylpiperazin-1-yl)-3-(pyridazin-4-yl)imidazo[1,2-b]pyridazine] | – | 164 nM | – | –
CC(C)N1CCN(c2ccc3nc(-c4ccc(F)cc4)c(-c4ccnnc4)n3n2)CC1 [Compound No. 11, 2-(4-fluorophenyl)-6-(4-isopropyl-piperazin-1-yl)-3-(pyridazin-4-yl)imidazo[1,2-b]pyridazine] | – | – | – | 50 to 65 nM
CC(C)N1CCN(c2ccc3nc(-c4ccc(F)c(F)c4)c(-c4ccnnc4)n3n2)CC1 [compound 14, 2-(3,4-difluorophenyl)-6-(4-isopropylpiperazin-1-yl)-3-pyridazin-4-yl-imidazo[1,2-b]pyridazine] | 192 to 194 °C | 62 nM | – | –
